# From patent US10336762B2 (priority 2017, dated 2019)
# Assays:
# IRAK4 enzyme = IRAK4 enzyme (Homo sapiens (Human), UniProt Q9NWZ3); assay: biochemical; format: biochemical; conditions: IRAK4 enzyme, TR-FRET (HTRF), 500 μM ATP
# TNFα = assay: cells; format: cell-based, human; conditions: Homo sapiens, Monocyte, LPS-stimulated human monocytes, TNFα content; read-out: EC50 TNF
# Chain of IRAK4 enzyme (Q9NWZ3 whole entry): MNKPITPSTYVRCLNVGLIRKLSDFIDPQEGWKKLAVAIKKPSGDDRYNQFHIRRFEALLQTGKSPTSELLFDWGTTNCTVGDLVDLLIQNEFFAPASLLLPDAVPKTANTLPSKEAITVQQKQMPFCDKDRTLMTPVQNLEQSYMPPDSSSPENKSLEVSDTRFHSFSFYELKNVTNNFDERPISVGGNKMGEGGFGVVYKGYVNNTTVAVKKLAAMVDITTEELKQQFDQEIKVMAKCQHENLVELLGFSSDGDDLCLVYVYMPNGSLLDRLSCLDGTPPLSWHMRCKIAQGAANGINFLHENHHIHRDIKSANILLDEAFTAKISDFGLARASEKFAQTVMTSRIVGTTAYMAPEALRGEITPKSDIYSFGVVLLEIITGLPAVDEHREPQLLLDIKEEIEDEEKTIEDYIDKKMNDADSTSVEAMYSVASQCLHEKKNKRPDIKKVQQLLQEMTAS
SMILES,IC50 (IRAK4 enzyme) [nM],EC50 (TNFα) [nM]
"COCc1nnc(NC[C@H]2C[C@H](Nc3cc(-c4ccc5cc(C#N)cnn45)ncc3C(=O)NC[C@@H](F)C(C)(C)O)C2)o1 [Example 697, 6-(3-cyanopyrrolo[1,2-b]pyridazin-7-yl)-N-((R)-2-fluoro-3-hydroxy-3-methylbutyl)-4-(((1r,3R)-3-(((5-(methoxymethyl)-1,3,4-oxadiazol-2-yl)amino)methyl)cyclobutyl)amino) nicotinamide]",1,171
"COC(=O)NC[C@H]1C[C@@H](Nc2cc(-c3ccc4cc(C#N)cnn34)ncc2C(=O)NC[C@@H](F)C(C)(C)O)C1 [Example 698, methyl (((1S,3s)-3-((2-(3-cyanopyrrolo[1,2-b]pyridazin-7-yl)-5-(((R)-2-fluoro-3-hydroxy-3-methylbutyl)carbamoyl)pyridin-4-yl)amino)cyclo-butyl)methyl)carbamate]",3,201
"CC(C)(O)[C@H](F)CNC(=O)c1cnc(-c2ccc3cc(C#N)cnn23)cc1N[C@H]1C[C@H](CNC(=O)[C@@H]2CC2(F)F)C1 [Example 699, 6-(3-cyanopyrrolo[1,2-b]pyridazin-7-yl)-4-(((1S,3R)-3-(((S)-2,2-difluorocyclopropane-1-carboxamido)methyl)cyclo-butyl)amino)-N-((R)-2-fluoro-3-hydroxy-3-methylbutyl)nicotinamide]",< 1,36
"CC(C)(O)[C@H](F)CNC(=O)c1cnc(-c2ccc3cc(C#N)cnn23)cc1N[C@H]1C[C@H](CNCC(F)(F)F)C1 [Example 700, 6-(3-cyanopyrrolo[1,2-b]pyridazin-7-yl)-N—((R)-2-fluoro-3-hydroxy-3-methylbutyl)-4-(((1r,3R)-3-(((2,2,2-trifluoroethyl)amino)methyl)cyclobutyl)amino)nicotinamide]",2,151
"CC(C)(O)[C@H](F)CNC(=O)c1cnc(-c2ccc3cc(C#N)cnn23)cc1N[C@H]1C[C@H](CN2CCOCC2)C1 [Example 701, 6-(3-cyanopyrrolo[1,2-b]pyridazin-7-yl)-N-((R)-2-fluoro-3-hydroxy-3-methylbutyl)-4-(((1r,3R)-3-(morpholino-methyl)cyclobutyl)amino)nicotinamide]",4,191
"CC(C)(O)[C@H](F)CNC(=O)c1cnc(-c2ccc3cc(C#N)cnn23)cc1N[C@H]1C[C@H](CNC2COC2)C1 [Example 702, 6-(3-cyanopyrrolo[1,2-b]pyridazin-7-yl)-N—((R)-2-fluoro-3-hydroxy-3-methylbutyl)-4-(((1r,3R)-3-((oxetan-3-ylamino)methyl)cyclobutyl)amino)nicotinamide]",< 1,119
"CC(C)(O)[C@H](F)CNC(=O)c1cnc(-c2ccc3cc(C#N)cnn23)cc1NCC1CCC1 [Example 703, (R)-6-(3-cyano-pyrrolo[1,2-b]pyridazin-7-yl)-4-((cyclobutyl-methyl)amino)-N-(2-fluoro-3-hydroxy-3-methylbutyl)nicotinamide]",< 1,45
"CC(C)(O)[C@H](F)CNC(=O)c1cnc(-c2ccc3cc(C#N)cnn23)cc1N[C@H]1C[C@H](Cn2cc(C3CC3)nn2)C1 [Example 704, 6-(3-cyanopyrrolo[1,2-b]pyridazin-7-yl)-4-(((1r,3R)-3-((4-cyclopropyl-1H-1,2,3-triazol-1-yl)methyl)cyclobutyl)amino)-N—((R)-2-fluoro-3-hydroxy-3-methylbutyl)nicotinamide]",1,69
"CC(C)(O)[C@H](F)CNC(=O)c1cnc(-c2ccc3cc(C#N)cnn23)cc1NCCc1ccc(F)cc1 [Example 707, (R)-6-(3-cyanopyrrolo[1,2-b]pyridazin-7-yl)-N-(2-fluoro-3-hydroxy-3-methylbutyl)-4-((4-fluorophenethyl)amino) nicotinamide]",1,42
"CC(C)(O)[C@H](F)CNC(=O)c1cnc(-c2ccc3cc(C#N)cnn23)cc1N[C@H]1C[C@H](Oc2ccccc2)C1 [Example 708, 6-(3-cyanopyrrolo[1,2-b]pyridazin-7-yl)-N-((R)-2-fluoro-3-hydroxy-3-methylbutyl)-4-(((1r,3R)-3-phenoxycyclobutyl)amino) nicotinamide]",1,57
"N#Cc1cnn2c(-c3cc(NC45CCC(O)(CC4)CC5)c(C(=O)NCC4(F)CC4)cn3)ccc2c1 [Example 709, 6-(3-cyanopyrrolo[1,2-b]pyridazin-7-yl)-N-((1-fluorocyclopropyl)methyl)-4-((4-hydroxy-bicyclo[2.2.2]octan-1-yl)amino)nicotinamide]",3,151
"N#Cc1cnn2c(-c3cc(NC45CCC(O)(CC4)CC5)c(C(=O)NCC4(C(F)F)COC4)cn3)ccc2c1 [Example 710, 6-(3-cyanopyrrolo[1,2-b]pyridazin-7-yl)-N-((3-(difluoromethyl)oxetan-3-yl)methyl)-4-((4-hydroxybicyclo[2.2.2]octan-1-yl)amino) nicotinamide]",4,183
"N#Cc1cnn2c(-c3cc(NC45CCC(O)(CC4)CC5)c(C(=O)NCC4(CO)COC4)cn3)ccc2c1 [Example 711, 6-(3-cyanopyrrolo[1,2-b]pyridazin-7-yl)-4-((4-hydroxybicyclo[2.2.2]octan-1-yl)amino)-N-((3-(hydroxymethyl)oxetan-3-yl)methyl)nicotinamide]",2,231
"CC(C)Nc1cc(-c2ccc3cc(C#N)cnn23)ncc1C(=O)NCCC(O)C(F)(F)F (centres unmarked) [Example 712, 6-(3-cyanopyrrolo[1,2-b]pyridazin-7-yl)-4-(isopropyl-amino)-N-(4,4,4-trifluoro-3-hydroxybutyl)nicotinamide]",< 1,47
"COCC1CCC1CNc1cc(-c2ccc3cc(C#N)cnn23)ncc1C(=O)NC[C@@H](F)C(C)(C)O (stereo partly drawn) [Example 713, 6-(3-cyanopyrrolo[1,2-b]pyridazin-7-yl)-N-((R)-2-fluoro-3-hydroxy-3-methyl-butyl)-4-(((2-(methoxy-methyl)cyclobutyl)methyl)amino)nicotinamide]",2,264
"CC(C)(O)[C@H](F)CNC(=O)c1cnc(-c2ccc3cc(C#N)cnn23)cc1N[C@H]1C[C@H](CN2CCOC2=O)C1 [Example 714, 6-(3-cyanopyrrolo[1,2-b]pyridazin-7-yl)-N-((R)-2-fluoro-3-hydroxy-3-methylbutyl)-4-(((1r,3R)-3-((2-oxooxazolidin-3-yl)methyl)cyclobutyl)amino)nicotinamide]",< 1,35
"CC(C)(O)[C@H](F)CNC(=O)c1cnc(-c2ccc3cc(C#N)cnn23)cc1N[C@H]1CC[C@H](CN2CCOC2=O)CC1 [Example 715, 6-(3-cyanopyrrolo[1,2-b]pyridazin-7-yl)-N-((R)-2-fluoro-3-hydroxy-3-methylbutyl)-4-(((1r,4R)-4-((2-oxooxazolidin-3-yl)methyl)cyclohexyl)amino)nicotinamide]",1,57
"COC(=O)NCCCNc1cc(-c2ccc3cc(C#N)cnn23)ncc1C(=O)NC[C@@H](F)C(C)(C)O [Example 716, (R)-methyl (3-((2-(3-cyanopyrrolo[1,2-b]pyridazin-7-yl)-5-((2-fluoro-3-hydroxy-3-methylbutyl)carbamoyl)pyridin-4-yl)amino)propyl)carbamate]",< 1,55
"COC(=O)NCCCCNc1cc(-c2ccc3cc(C#N)cnn23)ncc1C(=O)NC[C@@H](F)C(C)(C)O [Example 717, (R)-methyl (4-((2-(3-cyano-pyrrolo[1,2-b]pyridazin-7-yl)-5-((2-fluoro-3-hydroxy-3-methylbutyl)carbamoyl)pyridin-4-yl)amino)butyl) carbamate]",< 1,66
"COC(=O)NCC(C)(C)CNc1cc(-c2ccc3cc(C#N)cnn23)ncc1C(=O)NC[C@@H](F)C(C)(C)O [Example 718, (R)-methyl (3-((2-(3-cyano-pyrrolo[1,2-b]pyridazin-7-yl)-5-((2-fluoro-3-hydroxy-3-methylbutyl)carbamoyl)pyridin-4-yl)amino)-2,2-dimethylpropyl)carbamate]",2,280
"CC(C)(O)[C@H](F)CNC(=O)c1cnc(-c2ccc3cc(C#N)cnn23)cc1Nc1ccc(Cn2ccccc2=O)cc1 [Example 719, (R)-6-(3-cyanopyrrolo[1,2-b]pyridazin-7-yl)-N-(2-fluoro-3-hydroxy-3-methylbutyl)-4-((4-((2-oxopyridin-1(2H)-yl)methyl)phenyl)amino)nicotinamide]",< 1,11
"COC(=O)NCCCC(C)(C)Nc1cc(-c2ccc3cc(C#N)cnn23)ncc1C(=O)NC[C@@H](F)C(C)(C)O [Example 720, (R)-methyl (4-((2-(3-cyano-pyrrolo[1,2-b]pyridazin-7-yl)-5-((2-fluoro-3-hydroxy-3-methylbutyl)carbamoyl)pyridin-4-yl)amino)-4-methylpentyl)carbamate]",2,243
"COC(=O)NCCC(C)(C)Nc1cc(-c2ccc3cc(C#N)cnn23)ncc1C(=O)NC[C@@H](F)C(C)(C)O [Example 721, (R)-methyl (3-((2-(3-cyano-pyrrolo[1,2-b]pyridazin-7-yl)-5-((2-fluoro-3-hydroxy-3-methylbutyl)carbamoyl)pyridin-4-yl)amino)-3-methylbutyl)carbamate]",1,87
"COC(=O)N1C[C@@H]2[C@H](C1)[C@H]2Nc1cc(-c2ccc3cc(C#N)cnn23)ncc1C(=O)NC[C@@H](F)C(C)(C)O [Example 722, (1R,5S,6s)-methyl 6-((2-(3-cyanopyrrolo[1,2-b]pyridazin-7-yl)-5-(((R)-2-fluoro-3-hydroxy-3-methyl-butyl)carbamoyl)pyridin-4-yl)amino)-3-aza-bicyclo[3.1.0]hexane-3-carboxylate]",< 1,35
"CC(C)(O)[C@H](F)CNC(=O)c1cnc(-c2ccc3cc(C#N)cnn23)cc1N[C@H]1CC[C@H](N2CCC(F)(F)C2)CC1 [Example 723, 6-(3-cyanopyrrolo[1,2-b]pyridazin-7-yl)-4-(((1r,4R)-4-(3,3-difluoropyrrolidin-1-yl)cyclohexyl)amino)-N-((R)-2-fluoro-3-hydroxy-3-methylbutyl)nicotinamide]",7,793
